Test results: patent US20130023574A1, “METHOD FOR GENERATING DATA SET FOR INTEGRATED PROTEOMICS, INTEGRATED PROTEOMICS METHOD USING DATA SET FOR INTEGRATED PROTEOMICS THAT IS GENERATED BY THE GENERATION METHOD, AND METHOD FOR IDENTIFYING CAUSATIVE SUBSTANCE USING SAME” (National University Corporation Kumamoto University, priority 2010, published 2013)

Tests used:
U373 cells = test: Chemoresistance to TMZ (rate of living cells, absorbance) in glioma cell line U373; assay type: cell-based, human
Protocol: The experiment was carried out by inoculating the glioma cell line on a 96-well plate at the rate of 100 cells per well and adding TMZ at varying concentration ranging from 0 to 20 μM to each well after 5 hours of inoculation. After the plate was incubated for 6 days, absorbance at 450 nm was measured […]. The rate of living cells was expressed by percentage (%) at the defined concentrations of TMZ by setting the concentration rate of 0 μM as a control and as a standard rate of the living cells at the respective TMZ concentrations. […] In other words, it was found in the glioma cell line that the chemoresistance was increased to a higher extent as the variation expression amounts of vimentin were higher.
This experiment was implemented by inoculating a 6-well plate with glioma cells at the rate of 10^6 cells per well, followed by introduction of a vimentin siRNA or a control siRNA into the cells using lipofectamin 2000 after 24 hours of inoculation. […] After the plate was incubated for 6 days, absorbance at 450 nm was measured […]. […]
This experiment was implemented to investigate an influence of the PAK1-induced vimentin phosphorylation on the sensitivity to anticancer agents in the glioma cell line. […] After incubation for 6 days, the portion having absorbance at 420 nm was measured […]. The rate of living cells was expressed by percentage (%) at every set TMZ concentration by setting the TMZ concentration of 0 μM and absorbance for the stimulation with the PAK inhibitor as a standard living cell rate for the respective TMZ concentrations. […]
This experiment was carried out by inoculating a 96-well plate with the glioma cell line at the rate of 100 cells per well, followed by stimulation with 1 μM of Calpi or 1 μM of A23187 after 5 hours of inoculation and addition of TMZ at concentrations varying from 0 μM to 40 μM. After the glioma cell line was incubated for 6 days, the portion having absorbance at 420 nm was measured. […]

calpain = test: Fragmentation of vimentin in glioma cell line U373 by Western blotting; assay type: cell-based, human
Text: In this experiment, calpain was activated A23187 (a calcium ionophor). After the glioma cell line U373 was stimulated with the calpain inhibitor and then confirmed by Western blotting. […] Therefore, it was confirmed that vimentin is cleaved with calpain.
It is known that, although the N-terminal serine residue of group A can be acetylated, the N-terminal amino acid sequence of the vimentin fragments of groups B, C and D, respectively, can be cleaved by calpain (FIGS. 41d, 45). Therefore, in order to confirm the phosphorylation of vimentin and the cleavage of the N-terminal vimentin with PAK1 and calpain, respectively, a pattern of the vimentin spots with GFP-vimentin (1-464.aa full length) overexpressed in the U373 glioma cell line was analyzed by 2D Western blotting using an anti-C-terminal vimentin antibody. […] Further, the particular fragmentation of vimentin was suppressed with the calpain inhibitor (FIG. 27).

SMILES | medicine resistance of the U373 glioma cells (U373 cells; FIG. 33, stimulation plus TMZ) | sensitivity to anticancer agents (rate of living cells) (U373 cells; glioma cell line, 3 μg/ml ephrin A1 or 30 μM serotonin, TMZ 5, 10, 20 and 40 μM, 6 days, vs control) | fragmentation of vimentin (calpain) | resistance to anticancer agents (rate of living cells) (U373 cells; U373 cells, 1 μM A23187, TMZ 20 and 40 μM, 6 days, vs control)
NCCc1c[nH]c2ccc(O)cc12 [serotonin] | upregulated the medicine resistance | upregulated | – | –
CNc1ccc2oc(C[C@H]3O[C@@]4(CC[C@H]3C)O[C@H]([C@H](C)C(=O)c3ccc[nH]3)[C@H](C)C[C@H]4C)nc2c1C(=O)O [A23187] | – | – | enhanced the fragmentation | upregulated the resistance to anticancer agents significantly
